Results on 4 compounds are retold here after patent US20030073618A1, “Compounds comprising disulfide-containing peptides and nitrogenous bases, and medical uses thereof” (priority 2001, published 2003).

The structures appear in SMILES notation. Marks after values point to notes of the source that are not given here.

In one test the test system is hepatitis C virus (HCV). In words: Efficacy study in chronic viral hepatitis C, 74 patients (Tables 54-55).
In test [1] the test system is hepatitis B virus (HBV). The experiment in a line: Efficacy study in chronic viral hepatitis B, 62 patients (Tables 47-49). It is filed as in vivo, human.
Test [2] has as its system hepatitis B virus (HBV). The test is described as above. Particulars: month 1 (after treatment). It is filed as in vivo, human. The text has this: State of patient upon completion of treatment.
Setting [3] is: month 2 (1 month after treatment).
Where [4] appears, read: month 4 (3 months after treatment).

For `Cc1cn([C@H]2C[C@H](N=[N+]=[N-])[C@@H](CO)O2)c(=O)[nH]c1=O` [Retrovir], the “ALT in Chronic HCV Infection” value with hepatitis C virus (HCV) (Baseline (before treatment)) is on record as 180 ± 20.0 U/L; in the test on hepatitis C virus (HCV) (month 1 (after treatment)), “**132.0 ± 51.5 U/L”; in the test with hepatitis C virus (HCV) (setting [3]), “**108 ± 40.3 U/L”; in the test on hepatitis C virus (HCV) (setting [4]), “**90.0 ± 25.2 U/L”.

Regarding `CC(=O)OCC(CCn1cnc2cnc(N)nc21)COC(C)=O` [Famvir], the “ALT in Chronic HBV Infection” value in the test on hepatitis B virus (HBV) [1] (Baseline (before treatment)) is given as 165.7 ± 13.8 U/L; in the test with hepatitis B virus (HBV) [1] (setting [3]), “**75.9 ± 9.6 U/L”; with hepatitis B virus (HBV) [1] (setting [4]), “**77.9 ± 10.2 U/L”; in the test with hepatitis B virus (HBV) [2] it was “**70.2 ± 9.1 U/L”. For the same compound, the “HbsAg in Chronic HBV Infection” value in the test on hepatitis B virus (HBV) [1] (Baseline (before treatment)) is 157.8 ± 8.84 ng/mL; with hepatitis B virus (HBV) [1] (setting [3]), “**153.5 ± 10.14 ng/mL”; in the test with hepatitis B virus (HBV) [1] (setting [4]), “**132.5 ± 43.76 ng/mL”; in the test with hepatitis B virus (HBV) [2], “**150.5 ± 10.43 ng/mL”. The “PCR (%) in Chronic HBV Infection” value in the test with hepatitis B virus (HBV) [1] (Baseline (before treatment)) was 100%; in the test on hepatitis B virus (HBV) [1] (setting [3]) it was “**60.0%”; with hepatitis B virus (HBV) [1] (setting [4]), “**20.0%”; with hepatitis B virus (HBV) [2], “**50.0* %”.

Take `Nc1ccn([C@H]2CC[C@@H](CO)O2)c(=O)n1` [Hivid]: the “ALT in Chronic HCV Infection” value in the test with hepatitis C virus (HCV) (Baseline (before treatment)) is given as 187.5 ± 48.4 U/L; with hepatitis C virus (HCV) (month 1 (after treatment)), “**190 ± 71.1 U/L”; with hepatitis C virus (HCV) (setting [3]), “**153 ± 25.3 U/L”; with hepatitis C virus (HCV) (setting [4]) it was “**151 ± 25.2 U/L”.

Regarding `Cc1cn([C@H]2C[C@H](N=[N+]=[N-])[C@@H](CO)O2)c(=O)[nH]c1=O` [Zidovudine], the “PCR (%) in Chronic HCV Infection” value was 100% in the test with hepatitis C virus (HCV) (Baseline (before treatment)), “**54.5* %” in the test with hepatitis C virus (HCV) (month 1 (after treatment)), “**63.6* %” in the test with hepatitis C virus (HCV) (setting [3]) and “**59.1* %” in the test on hepatitis C virus (HCV) (setting [4]).
